# Key:
# HSV-1 strain 2931 = experiment: In vivo HSV-1 infection of A/J mice; details: for mice that survived the 21 day experiment: starting 24 hours after inoculation, intraperitoneal
# Description: (§1) The effective doses for 1-(2-deoxy-2-fluoro-β-D-arabinofuranosyl)-5-iodocytosine are given below. 1-(2-deoxy-2-fluoro-β-D-arabinofuranosyl)-5-iodocytosine is diluted in physiological saline, filter sterilized, and inoculated. This compound is readily soluble at concentrations of 25 mg/ml in saline. In mouse studies, the drug is inoculated by the intraperitoneal route.
# 1-(2-deoxy-2-fluoro-β-D-arabinofuranosyl)-5-iodocytosine was also shown to be active in vivo. A/J mice were inoculated with approximately 50 LD50 of HSV-1 strain 2931 intraperitoneally and then treated with 1-(2-deoxy-2-fluoro-β-D-arabinofuranosyl)-5-iodocytosine starting 24 hours later. 1-(2-deoxy-2-fluoro-β-D-arabinofuranosyl)-5-iodocytosinewas given at 10 and 1 mg/kg/da for 5 days. Untreated mice died 8 days post inoculation. Five of 10 mice treated with 10 mg/kg/day survived the 21 day experiment. Two of 10 treated with 1 mg/kg/da survival the 21 day experiment and the remainder died an average of 10 days after inoculation.
# [1] = system: herpes simplex virus-type 1 DNA; experiment: Inhibition of replication of HSV-1 DNA versus cellular DNA in the same infected cells; assay type: cell-based; details: viral vs cellular DNA in the same infected cells
# turkey herpesvirus = experiment: In vivo test on avian (turkey) herpesvirus in day-old chicks; details: 2.5 mg FIAC per 50 g chick at intervals
# Description: In vivo tests were run to determine the effect of FIAC on avian (turkey) herpesvirus. To this end, day-old chicks were infected with turkey herpesvirus and treated at intervals with 2.5 mg FIAC per 50 g chick.
# [2] = Toxicity to normal human lymphoblastoid cells; assay type: cell-based; details: read-out: concentration up to which not toxic to normal human lymphoblastoid cells
# Description: Since 1-(2-deoxy-2-fluoro-β-D-arabinofuranosyl)-5-iodocytosine was not toxic to normal human lymphoblastoid cells at concentrations of up to 10 μM, the compound is believed to affect tumor cells at concentrations 1/100th those needed to suppress normal cell replication.
# [3] = system: Herpes Simplex Virus type 2; experiment: Inhibition of Herpes Simplex Virus type 2 replication; assay type: cell-based
# Description: (§2) Compounds of the invention show anti-viral and anti-tumor activity. 1-(2-Deoxy-2-fluoro-β-D-arabinofuranosyl)-5-iodocytosine inhibits Herpes Simplex Virus type 1 and type 2 replication. HFEM, Patton, 2931, and F-strain HSV-1 and 333 and G-strain HSV-2 are effected at concentrations of 1-(2-deoxy-2-fluoro-β-D-arabinofuranosyl)-5-iodocytosine 0.01μM (approximately 0.004 μg/ml).
# as §1
# [4] = system: Herpes Simplex Virus type 1; experiment: Inhibition of Herpes Simplex Virus type 1 replication; assay type: cell-based
# Description: as §2, §1
# herpes zoster virus = experiment: Anti-viral activity against herpes zoster virus; assay type: cell-based
# [5] = system: cytomegalovirus (CMV strain AD 169); experiment: Activity against cytomegalovirus (plaque formation on WI-38 cells); assay type: cell-based
# [6] = system: viral versus the cellular enzymes (TK and DNA polymerase); experiment: Direct testing of interaction with the viral versus the cellular enzymes; assay type: biochemical; details: FIAC or its triphosphate
# [7] = system: herpes simplex virus (HSV); details: cited from earlier work
# uninfected cells = details: compared with 5-iodo (or 5-bromo)-2'-deoxyuridine; cited from earlier work
# L5178Y = experiment: Cytotoxicity, 50% inhibition of growth of L5178Y cells in vitro; assay type: cell-based; details: Mus musculus, 96 hrs. incubation at 37° C., read-out: Cytoxicity ID50
# Description: Concentration required for 50% inhibition of growth of cells in vitro
# after 96 hrs. incubation at 37° C.
# [8] = series of herpes simplex virus-types 1 and 2
structure (smiles),measurement,setting,value
Nc1nc(=O)n([C@@H]2O[C@H](CO)[C@@H](O)[C@@H]2F)cc1I [1-(2-deoxy-2-fluoro-β-D-arabinofuranosyl)-5-iodocytosine],mice that survived the 21 day experiment,HSV-1 strain 2931; 1 mg/kg/da for 5 days,Two of 10
same,average time of death after inoculation (remainder),"HSV-1 strain 2931; 1 mg/kg/da for 5 days, untreated mice died 8 days post inoculation",10 days
same,mice that survived the 21 day experiment,HSV-1 strain 2931; 10 mg/kg/day for 5 days,Five of 10
same,selective inhibition of replication of viral DNA,[1],selectively inhibit the replication of herpes simplex virus-type 1 DNA but not cellular DNA
same,effect on virus induced leukopenia / inhibition of the virus,turkey herpesvirus,brought the virus induced leukopenia back to the levels of the control uninfected chicks and thus inhibited the virus
same,MNTC,[2],> 10 µM
same,minimal effective concentration,"[3]; Human alphaherpesvirus 2, 333 and G-strain HSV-2, read-out: concentration at which HSV-2 strains are effected",~0.004 µg/mL
same,anti-viral activity,[3]; [8],impressive anti-viral activity
same,minimal effective concentration,"[4]; Human alphaherpesvirus 1, HFEM, Patton, 2931, and F-strain HSV-1, read-out: concentration at which HSV-1 strains are effected",~0.004 µg/mL
same,anti-viral activity,[4]; [8],impressive anti-viral activity
same,anti-viral activity,herpes zoster virus,impressive anti-viral activity
same,sensitivity of cytomegalovirus to anti-viral effect,[5],sensitive
same,selectivity for viral versus cellular enzymes,[6],selectivity was demonstrated
Nc1nc(=O)n([C@H]2C[C@H](O)[C@@H](CO)O2)cc1Br [5-Bromo-2'-deoxycytidine],inhibition of HSV replication,[7],as effectively as their corresponding deoxyuridine analogs
same,toxicity to uninfected cells,uninfected cells,less toxic to uninfected cells
Nc1nc(=O)n([C@H]2C[C@H](O)[C@@H](CO)O2)cc1I [5-iodo-2'-deoxycytidine],inhibition of HSV replication,[7],as effectively as their corresponding deoxyuridine analogs
same,toxicity to uninfected cells,uninfected cells,less toxic to uninfected cells
"Nc1ccn([C@@H]2O[C@H](CO)[C@@H](O)[C@@H]2F)c(=O)n1 [IVa, 1-(2-deoxy-2-fluoro-β-D-arabinofuranosyl)cytosine, reference compound]",IC50,L5178Y,0.05 µg/mL
"Nc1nc(=O)n([C@@H]2O[C@H](CO)[C@@H](O)[C@@H]2F)cc1F [IVb, 1-(2-deoxy-2-fluoro-β-D-arabinofuranosyl)-5-fluorocytosine]",IC50,L5178Y,0.5 µg/mL
"Nc1nc(=O)n([C@@H]2O[C@H](CO)[C@@H](O)[C@@H]2F)cc1Cl [IVc, 1-(2-deoxy-2-fluoro-β-D-arabinofuranosyl)-5-chlorocytosine]",IC50,L5178Y,1.4 µg/mL
"Nc1nc(=O)n([C@@H]2O[C@H](CO)[C@@H](O)[C@@H]2F)cc1Br [IVd, 1-(2-deoxy-2-fluoro-β-D-arabinofuranosyl)-5-bromocytosine]",IC50,L5178Y,~10 µg/mL
"Cl.Nc1nc(=O)n([C@@H]2O[C@H](CO)[C@@H](O)[C@@H]2F)cc1I [IVe, 1-(2-Deoxy-2-fluoro-β-D-arabinofuranosyl)-5-iodocytosine hydrochloride]",IC50,L5178Y,48 µg/mL
O=c1ccn([C@@H]2O[C@H](CO)[C@@H](O)[C@@H]2F)c(=O)[nH]1 [Va],IC50,L5178Y,> 10 µg/mL
"O=c1[nH]c(=O)n([C@@H]2O[C@H](CO)[C@@H](O)[C@@H]2F)cc1F [Vb, 1-(2-deoxy-2-fluoro-β-D-arabinofuranosyl)-5-fluorouracil]",IC50,L5178Y,1 µg/mL
"O=c1[nH]c(=O)n([C@@H]2O[C@H](CO)[C@@H](O)[C@@H]2F)cc1Cl [Vc, 1-(2-deoxy-2-fluoro-β-D-arabinofuranosyl)-5-chlorouracil]",IC50,L5178Y,1.4 µg/mL
"O=c1[nH]c(=O)n([C@@H]2O[C@H](CO)[C@@H](O)[C@@H]2F)cc1Br [Vd, 1-(2-deoxy-2-fluoro-β-D-arabinofuranosyl)-5-bromouracil]",IC50,L5178Y,0.9 µg/mL
"O=c1[nH]c(=O)n([C@@H]2O[C@H](CO)[C@@H](O)[C@@H]2F)cc1I [Ve, 1-(2-deoxy-2-fluoro-β-D-arabinofuranosyl)-5-iodouracil]",IC50,L5178Y,0.9 µg/mL
"Cc1cn([C@@H]2O[C@H](CO)[C@@H](O)[C@@H]2F)c(=O)[nH]c1=O [Vf, 1-(2-deoxy-2-fluoro-β-D-arabinofuranosyl)thymine]",sensitivity of cytomegalovirus to anti-viral effect,[5],sensitive

# From US4594339A, “Anti-herpes virus compositions containing 5-substituted 1-2'(deoxy-2-'-substituted-β-d-arabinofuranosyl)pyrimedene nucleosides” (priority 1984, dated 1986)
